Test results published in patent publication US20120107240A1, “Probes and methods of melanoma imaging” (The Board of Trustees of the Leland Stanford Junior …, priority 2010, published 2012).

How the values were obtained:
[1] = test system: B16F10 tumor; experiment: microPET quantification (ROI analysis) of tumors and other organs in B16F10 tumor-bearing mice; type: in vivo, C57BL/6 mice; settings: for tumor uptake: tail vein, B16F10 tumor
Description: B16F10 was cultured in Dulbecco's modified Eagle high-glucose medium (Gibco Life Sciences) supplemented with 10% fetal bovine serum with penicillin and streptomycin. The cells were regularly maintained in a 37° C., 5% CO2 humidified incubator. The subcutaneous B16F10 tumor models were prepared with 5- to 6-wk-old male C57BL/6 mice (Charles River). Static microPET scans were performed on the B16F10 tumor-bearing mice and representative decay-corrected coronal images at 0.5, 1, and 2 h after tail vein injection of ^18F-P3BZA (3-^18F-fluoropicolinamide) probe and ^18F-P2BZA (2-^18F-fluoronicotinamide) probe are shown in FIG. 2 (n=5 for each group), from which the B16F10 tumors were clearly visualized with good tumor-to-background contrast for both tracers (the white arrows indicate the tumors).
The microPET quantification analysis of tumors and other organs was obtained from the ROI analysis and the results at 0.5, 1, and 2 h p.i. are shown in FIG. 3. The tumor uptake of 18F-F3BZA probe was 11.8±2.2, 13.2±2.4, and 14.5±3.2% ID/g at 0.5, 1, and 2 h p.i., respectively. For ^18F-P2BZA probe, the tumor uptake was 5.5±1.6, 4.6±2.4, 5.5±2.6% ID/g at 0.5, 1, and 2 h p.i., respectively. […] The unspecific uptake by muscle is very low, 0.8±0.4, 1.0±0.5, 0.6±0.3% ID/g at 0.5, 1, and 2 h p.i.), which is the explanation of the high contrast images shown in FIG. 2.
(§1) The ^18F-fluoropicolinamides were prepared by radiofluorination reactions using no-carrier-added ^18F-fluoride and evaluated in vivo by biodistribution studies and micro-positron emission tomography (microPET) imaging in C57BL/6 mice bearing B16F10 murine melanoma tumors.

[2] = test system: B16F10 murine melanoma tumors; experiment: Noninvasive microPET and direct tissue sampling (biodistribution) in subcutaneous B16F10 melanoma xenografts; type: in vivo, C57BL/6 mice
Description: as §1
The total synthesis time was less than 1 hour. The radiochemical purity of the ^18F-labeled probes was more than 98% and the specific activity was 100-150 GBq/μmol.

Substance | tumor uptake ([1]; 0.5 h post injection) [% ID/g] | tumor uptake ([1]; 1 h post injection) [% ID/g] | tumor uptake ([1]; 2 h post injection) [% ID/g] | Kidneys uptake ([1]; 0.5 h p.i.) [% ID/g] | Liver uptake ([1]; 0.5 h p.i.) [% ID/g] | unspecific uptake by muscle ([1]; 0.5 h p.i.) [% ID/g] | Kidneys uptake ([1]; 1 h p.i.) [% ID/g] | Liver uptake ([1]; 1 h p.i.) [% ID/g] | unspecific uptake by muscle ([1]; 1 h p.i.) [% ID/g] | Kidneys uptake ([1]; 2 h p.i.) [% ID/g] | Liver uptake ([1]; 2 h p.i.) [% ID/g] | unspecific uptake by muscle ([1]; 2 h p.i.) [% ID/g] | tumor uptake ([1]; 2 h post injection, listed as 18F-F3BZA) [% ID/g] | tumor to muscle ratio ([1]; at 2 h) | clearance from the blood ([1]; mouse, in vivo) | in vivo stability ([2]; evidenced by bone uptake) | bone uptake in biodistribution studies ([2]; mouse, in vivo) | bone uptake ([1]; 1 h postinjection) [% ID/g] | bone uptake ([1]; 2 h postinjection) [% ID/g] | defluorination in the murine model ([1]; evidenced by bone uptake)
2-^18F-fluoronicotinamide [^18F-P2BZA, reference compound] | 5.5±1.6 | 4.6±2.4 | 5.5±2.6 |  |  |  |  |  |  |  |  |  |  |  |  |  |  |  |  | 
3-^18F-fluoropicolinamide [^18F-P3BZA] | 11.8±2.2 | 13.2±2.4 | 14.6±3.2 | 6.9±1.1 | 5.1±0.8 | 0.8±0.4 | 4.7±0.8 | 4.3±1.1 | 1.0±0.5 | 3.0±0.6 | 3.0±0.6 | 0.6±0.3 | 14.5±3.2 | 25.3 | cleared rapidly | good | low |  |  | 
4-^18F-fluoropicolinamide [^18F-P4BZA] | 10.7±1.3 | 10.5±1.8 | 8.7±2.3 |  |  |  |  |  |  |  |  |  |  |  |  |  |  | 11.3±2.9 | 10.3±3.6 | very high
